Experimental data from patent US6399542B1, “Alkoxyimino-substituted bicyclic compounds compositions containing the same and method of making such compounds” (Agro-Kanesho Co., Ltd., priority 1997, dated 2002).
Like-named read-outs stand apart in the source and are kept apart here.

How the values were obtained:
Rhizoctonia solani = test: Effect on Rice sheath blight (preventive spray test); details: 10 days after inoculation
Description: An emulsion of a compound of the present invention prepared in Preparation Example 2 was diluted with water and uniformly sprayed on 5 rice plant seedlings (variety: Koshihikari) in 4.5-leaf stage in each plastic pot having a diameter of 6 cm, with a spray gun. One day after the spraying, the seedlings were bundled at the second sheath with a string. Colonies of Rhizoctonia solani previously cultured in PSA culture medium were bored with a cork borer to obtain pieces having a diameter of 4 mm. The piece was put in the bundle, and kept in a high-humidity room at 25° C. until the examination. Ten days after the inoculation, the degree of the disease was examined, and the preventive rate (effect of inhibiting the disease) was calculated on the basis of the following standard:
Preventive rate=[1-D′/C′]×100
C′: Severity in untreated section
D′: Severity in treated section.

Erysiphe graminis = test: Effects on Barley powdery mildew (preventive spray test); assay type: in vivo; details: lesions counted seven days after inoculation
Pyricularia oryzae = assay type: in vivo; details: Rice blast, 7 days after inoculation
[1] = test system: Psecidoperonospora cubensis; test: Effect on Cucumber downy mildew (preventive spray test); assay type: in vivo; details: 7 days after inoculation
Puccinia recondita = test: Effect on Wheat brown rust (preventive spray test); assay type: in vivo; details: 7 days after inoculation
Chochliobolus miyabeanus = test: Effect on Rice brown spot (preventive spray test); assay type: in vivo; details: 7 days after inoculation
Phytophthora infestans = assay type: in vivo; details: Tomato late blight, 5 days after inoculation
[2] = conc. of active ingredient 20 ppm
[3] = conc. of active ingredient 100 ppm
[4] = conc. of active ingredient 4 ppm

| SMILES | Preventive rate (%) (Rhizoctonia solani; [2]) | Preventive rate (%) (Rhizoctonia solani; [3]) | Preventive rate (%) (Erysiphe graminis; [4]) | Preventive rate (%) (Erysiphe graminis; [2]) | Preventive rate (%) (Erysiphe graminis; [3]) | Preventive rate (%) (Pyricularia oryzae; [4]) | Preventive rate (%) (Pyricularia oryzae; [2]) | Preventive rate (%) (Pyricularia oryzae; [3]) | Preventive rate (%) [1, 4] | Preventive rate (%) [1, 2] | Preventive rate (%) [1, 3] | Preventive rate (%) (Puccinia recondita; [4]) | Preventive rate (%) (Puccinia recondita; [2]) | Preventive rate (%) (Puccinia recondita; [3]) | Preventive rate (%) (Chochliobolus miyabeanus; [2]) | Preventive rate (%) (Chochliobolus miyabeanus; [3]) | Preventive rate (%) (Phytophthora infestans; [2]) | Preventive rate (%) (Phytophthora infestans; [3]) |
| --- | --- | --- | --- | --- | --- | --- | --- | --- | --- | --- | --- | --- | --- | --- | --- | --- | --- | --- |
| CCON=C1COc2c1ccc(OCc1ccccc1/C(=N\OC)C(=O)OC)c2C [a-35] | 80% | 84% | 98% | 100% | 100% |  |  |  |  |  |  |  |  |  |  |  |  |  |
| CNC(=O)C(=NOC)c1ccccc1COc1ccc2c(c1C)OC(C)CC2=NOC (racemic) [d-11] | 75% | 96% |  | 99% | 99% | 68% | 78% | 95% | 93% | 96% | 100% | 100% | 100% | 100% |  |  |  |  |
| CON=C(C(=O)OC)c1ccccc1COc1ccc2c(c1)OCCC2=NOC [c-4] | 53% | 98% |  |  |  |  | 86% | 90% |  | 94% | 100% |  |  | 100% | 80% | 80% | 97% | 97% |
| CNC(=O)C(=NOC)c1ccccc1COc1ccc2c(c1C)OCCC2=NOCc1c(F)c(F)c(F)c(F)c1F [c-83] | 79% | 81% |  | 96% | 100% |  |  |  |  |  |  | 95% | 100% | 100% |  |  |  |  |
| CNC(=O)C(=NOC)c1ccccc1COc1cc2c(cc1C)C(=NOC)CCO2 [c-27] | 93% | 94% | 100% | 100% | 100% |  | 95% | 100% | 86% | 93% | 96% | 96% | 100% | 100% |  |  | 98% | 100% |
| CCc1c(OCc2ccccc2C(=NOC)C(=O)NC)ccc2c1OCCC2=NOC [c-30] | 56% | 98% | 95% | 100% | 100% |  | 100% | 100% |  |  |  | 100% | 100% | 100% |  |  |  |  |
